In PubChem BioAssay (NCI):
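Exposure lasted 48 hours, with cells grown in 96-well plates and compounds tested at five concentrations. The concentration for 50% growth inhibition is given as GI50. TGI marks complete inhibition of growth.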

Experiments:
Assay in all cases: growth of human tumour cells (NCI), 48 h
786-0 renal = system: 786-0 renal
A498 renal = system: A498 renal
A549 NSCLC = system: A549 NSCLC
ACHN renal = system: ACHN renal
BT-549 breast = system: BT-549 breast
CAKI-1 renal = system: CAKI-1 renal
CCRF-CEM leukemia = system: CCRF-CEM leukemia
COLO 205 colon = system: COLO 205 colon
DU-145 prostate = system: DU-145 prostate
HCC-2998 colon = system: HCC-2998 colon
HCT-116 colon = system: HCT-116 colon
HCT-15 colon = system: HCT-15 colon
HL-60(TB) leukemia = system: HL-60(TB) leukemia
HOP-62 NSCLC = system: HOP-62 NSCLC
HOP-92 NSCLC = system: HOP-92 NSCLC
HS 578T breast = system: HS 578T breast
HT29 colon = system: HT29 colon
IGROV1 ovarian = system: IGROV1 ovarian
K-562 leukemia = system: K-562 leukemia
KM12 colon = system: KM12 colon
LOX IMVI melanoma = system: LOX IMVI melanoma
M14 melanoma = system: M14 melanoma
MALME-3M melanoma = system: MALME-3M melanoma
MCF7 breast = system: MCF7 breast
MDA-MB-231 breast = system: MDA-MB-231 breast
MDA-MB-435 = system: MDA-MB-435
MOLT-4 leukemia = system: MOLT-4 leukemia
NCI-H23 lung = system: NCI-H23 lung
NCI-H460 lung = system: NCI-H460 lung
NCI-H522 lung = system: NCI-H522 lung
NCI/ADR-RES ovarian = system: NCI/ADR-RES ovarian
OVCAR-3 ovarian = system: OVCAR-3 ovarian
OVCAR-4 ovarian = system: OVCAR-4 ovarian
OVCAR-5 ovarian = system: OVCAR-5 ovarian
OVCAR-8 ovarian = system: OVCAR-8 ovarian
PC-3 prostate = system: PC-3 prostate
RPMI-8226 leukemia = system: RPMI-8226 leukemia
RXF 393 renal = system: RXF 393 renal
SF-268 CNS = system: SF-268 CNS
SF-295 CNS = system: SF-295 CNS
SF-539 CNS = system: SF-539 CNS
SK-MEL-2 melanoma = system: SK-MEL-2 melanoma
SK-MEL-28 melanoma = system: SK-MEL-28 melanoma
SK-MEL-5 melanoma = system: SK-MEL-5 melanoma
SK-OV-3 ovarian = system: SK-OV-3 ovarian
SN12C renal = system: SN12C renal
SNB-19 CNS = system: SNB-19 CNS
SNB-75 CNS = system: SNB-75 CNS
SR leukemia = system: SR leukemia
SW-620 colon = system: SW-620 colon
T-47D breast = system: T-47D breast
TK-10 renal = system: TK-10 renal
U251 CNS = system: U251 CNS
UACC-257 melanoma = system: UACC-257 melanoma
UACC-62 melanoma = system: UACC-62 melanoma
UO-31 renal = system: UO-31 renal
EKVX NSCLC = system: EKVX NSCLC
NCI-H226 lung = system: NCI-H226 lung

O=C(NNc1ccccc1)OCc1ccccc1
GI50 (786-0 renal): 7.01 µM | TGI (786-0 renal): > 100 µM | GI50 (A498 renal): 13.3 µM | TGI (A498 renal): > 100 µM | GI50 (A549 NSCLC): 9.18 µM | TGI (A549 NSCLC): > 100 µM | GI50 (ACHN renal): 6.9 µM | TGI (ACHN renal): > 100 µM | GI50 (BT-549 breast): 16.6 µM | TGI (BT-549 breast): 85.5 µM | GI50 (CAKI-1 renal): 1.02 µM | TGI (CAKI-1 renal): 14.2 µM | GI50 (CCRF-CEM leukemia): 3.94 µM | TGI (CCRF-CEM leukemia): > 100 µM | GI50 (COLO 205 colon): 17 µM | TGI (COLO 205 colon): 46.4 µM | GI50 (DU-145 prostate): 75.5 µM | TGI (DU-145 prostate): > 100 µM | GI50 (HCC-2998 colon): 17.6 µM | TGI (HCC-2998 colon): > 100 µM | GI50 (HCT-116 colon): 12.4 µM | TGI (HCT-116 colon): > 100 µM | GI50 (HCT-15 colon): 4.98 µM | TGI (HCT-15 colon): > 100 µM | GI50 (HL-60(TB) leukemia): 3.55 µM | TGI (HL-60(TB) leukemia): 58.7 µM | GI50 (HOP-62 NSCLC): 84.5 µM | TGI (HOP-62 NSCLC): > 100 µM | GI50 (HOP-92 NSCLC): 14.7 µM | TGI (HOP-92 NSCLC): > 100 µM | GI50 (HS 578T breast): 70.2 µM | TGI (HS 578T breast): > 100 µM | GI50 (HT29 colon): 54.6 µM | TGI (HT29 colon): > 100 µM | GI50 (IGROV1 ovarian): 15.2 µM | TGI (IGROV1 ovarian): > 100 µM | GI50 (K-562 leukemia): 1.94 µM | TGI (K-562 leukemia): > 100 µM | GI50 (KM12 colon): 3.92 µM | TGI (KM12 colon): > 100 µM | GI50 (LOX IMVI melanoma): 15.2 µM | TGI (LOX IMVI melanoma): > 100 µM | GI50 (M14 melanoma): 2.81 µM | TGI (M14 melanoma): 60.6 µM | GI50 (MALME-3M melanoma): 20.1 µM | TGI (MALME-3M melanoma): 96.6 µM | GI50 (MCF7 breast): 26.2 µM | TGI (MCF7 breast): > 100 µM | GI50 (MDA-MB-231 breast): 11.3 µM | TGI (MDA-MB-231 breast): > 100 µM | GI50 (MDA-MB-435): 4.13 µM | TGI (MDA-MB-435): > 100 µM | GI50 (MOLT-4 leukemia): 5.89 µM | TGI (MOLT-4 leukemia): > 100 µM | GI50 (NCI-H23 lung): 69.5 µM | TGI (NCI-H23 lung): > 100 µM | GI50 (NCI-H460 lung): 4.43 µM | TGI (NCI-H460 lung): > 100 µM | GI50 (NCI-H522 lung): 33.6 µM | TGI (NCI-H522 lung): > 100 µM | GI50 (NCI/ADR-RES ovarian): 21.1 µM | TGI (NCI/ADR-RES ovarian): > 100 µM | GI50 (OVCAR-3 ovarian): 21 µM | TGI (OVCAR-3 ovarian): > 100 µM | GI50 (OVCAR-4 ovarian): 18.6 µM | TGI (OVCAR-4 ovarian): > 100 µM | GI50 (OVCAR-5 ovarian): 8.05 µM | TGI (OVCAR-5 ovarian): > 100 µM | GI50 (OVCAR-8 ovarian): 11.2 µM | TGI (OVCAR-8 ovarian): > 100 µM | GI50 (PC-3 prostate): 5.35 µM | TGI (PC-3 prostate): > 100 µM | GI50 (RPMI-8226 leukemia): 17.3 µM | TGI (RPMI-8226 leukemia): > 100 µM | GI50 (RXF 393 renal): 91.6 µM | TGI (RXF 393 renal): > 100 µM | GI50 (SF-268 CNS): 9.27 µM | TGI (SF-268 CNS): > 100 µM | GI50 (SF-295 CNS): 2.81 µM | TGI (SF-295 CNS): 28.2 µM | GI50 (SF-539 CNS): 2.91 µM | TGI (SF-539 CNS): 10.3 µM | GI50 (SK-MEL-2 melanoma): 15.7 µM | TGI (SK-MEL-2 melanoma): > 100 µM | GI50 (SK-MEL-28 melanoma): 98.3 µM | TGI (SK-MEL-28 melanoma): > 100 µM | GI50 (SK-MEL-5 melanoma): 16.8 µM | TGI (SK-MEL-5 melanoma): > 100 µM | GI50 (SK-OV-3 ovarian): > 100 µM | TGI (SK-OV-3 ovarian): > 100 µM | GI50 (SN12C renal): 73.8 µM | TGI (SN12C renal): > 100 µM | GI50 (SNB-19 CNS): 63.9 µM | TGI (SNB-19 CNS): > 100 µM | GI50 (SNB-75 CNS): > 100 µM | TGI (SNB-75 CNS): > 100 µM | GI50 (SR leukemia): 41.3 µM | TGI (SR leukemia): > 100 µM | GI50 (SW-620 colon): 2.14 µM | TGI (SW-620 colon): > 100 µM | GI50 (T-47D breast): 9.86 µM | TGI (T-47D breast): > 100 µM | GI50 (TK-10 renal): 32.9 µM | TGI (TK-10 renal): > 100 µM | GI50 (U251 CNS): 70.6 µM | TGI (U251 CNS): > 100 µM | GI50 (UACC-257 melanoma): 18.5 µM | TGI (UACC-257 melanoma): > 100 µM | GI50 (UACC-62 melanoma): 0.462 µM | TGI (UACC-62 melanoma): 8.43 µM | GI50 (UO-31 renal): 2.88 µM | TGI (UO-31 renal): 37 µM

O=C1Nc2cc([N+](=O)[O-])ccc2C(=O)N2CCC[C@@H]12
TGI (786-0 renal): > 100 µM | TGI (A498 renal): > 100 µM | TGI (A549 NSCLC): > 100 µM | TGI (ACHN renal): > 100 µM | TGI (BT-549 breast): > 100 µM | TGI (CAKI-1 renal): > 100 µM | TGI (CCRF-CEM leukemia): > 100 µM | TGI (COLO 205 colon): > 100 µM | TGI (DU-145 prostate): > 100 µM | TGI (EKVX NSCLC): > 100 µM | TGI (HCC-2998 colon): > 100 µM | TGI (HCT-116 colon): > 100 µM | TGI (HCT-15 colon): > 100 µM | TGI (HL-60(TB) leukemia): > 100 µM | TGI (HOP-62 NSCLC): > 100 µM | TGI (HOP-92 NSCLC): > 100 µM | TGI (HS 578T breast): > 100 µM | TGI (HT29 colon): > 100 µM | TGI (IGROV1 ovarian): > 100 µM | TGI (K-562 leukemia): > 100 µM | TGI (KM12 colon): > 100 µM | TGI (LOX IMVI melanoma): > 100 µM | TGI (M14 melanoma): > 100 µM | TGI (MCF7 breast): > 100 µM | TGI (MDA-MB-231 breast): > 100 µM | TGI (MDA-MB-435): > 100 µM | TGI (MOLT-4 leukemia): > 100 µM | TGI (NCI-H226 lung): > 100 µM | TGI (NCI-H23 lung): > 100 µM | TGI (NCI-H460 lung): > 100 µM | TGI (NCI-H522 lung): > 100 µM | TGI (NCI/ADR-RES ovarian): > 100 µM | TGI (OVCAR-3 ovarian): > 100 µM | TGI (OVCAR-4 ovarian): > 100 µM | TGI (OVCAR-5 ovarian): > 100 µM | TGI (OVCAR-8 ovarian): > 100 µM | TGI (PC-3 prostate): > 100 µM | TGI (RPMI-8226 leukemia): > 100 µM | TGI (RXF 393 renal): > 100 µM | TGI (SF-268 CNS): > 100 µM | TGI (SF-295 CNS): > 100 µM | TGI (SF-539 CNS): > 100 µM | TGI (SK-MEL-2 melanoma): > 100 µM | TGI (SK-MEL-28 melanoma): > 100 µM | TGI (SK-MEL-5 melanoma): > 100 µM | TGI (SK-OV-3 ovarian): > 100 µM | TGI (SN12C renal): > 100 µM | TGI (SNB-19 CNS): > 100 µM | TGI (SNB-75 CNS): > 100 µM | TGI (SR leukemia): > 100 µM | TGI (SW-620 colon): > 100 µM | TGI (T-47D breast): > 100 µM | TGI (TK-10 renal): > 100 µM | TGI (U251 CNS): > 100 µM | TGI (UACC-257 melanoma): > 100 µM | TGI (UACC-62 melanoma): > 100 µM | TGI (UO-31 renal): > 100 µM
